Reference: patent US20110021554A1, “IMMUNE RESPONSE MODIFIER FORMULATIONS AND METHODS” (priority 2004, published 2011)

Experiment: Effect of sodium chloride on solubility of the drug
Type: physicochemical
Conditions: apparently due to salt formation

CCc1nc2c(N)nc3ccccc3c2n1CCCCNS(C)(=O)=O [N-[4-(4-amino-2-ethyl-1H-imidazo[4,5-c]quinolin-1-yl)butyl]methanesulfonamide]
Solubility of the drug in presence of sodium chloride: reduces solubility of the drug
